According to PubChem BioAssay (NCI):
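48-hour exposure; five concentrations; linearly interpolated endpoints. GI50 = concentration required for 50% inhibition of growth. The concentration for full growth arrest is given as TGI.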

Legend:
Test in all cases: DTP human tumour cell line panel, 48 h
786-0 renal = system: 786-0 renal
A498 renal = system: A498 renal
A549 NSCLC = system: A549 NSCLC
ACHN renal = system: ACHN renal
BT-549 breast = system: BT-549 breast
CAKI-1 renal = system: CAKI-1 renal
CCRF-CEM leukemia = system: CCRF-CEM leukemia
COLO 205 colon = system: COLO 205 colon
DU-145 prostate = system: DU-145 prostate
EKVX NSCLC = system: EKVX NSCLC
HCC-2998 colon = system: HCC-2998 colon
HCT-116 colon = system: HCT-116 colon
HCT-15 colon = system: HCT-15 colon
HOP-62 NSCLC = system: HOP-62 NSCLC
HOP-92 NSCLC = system: HOP-92 NSCLC
HS 578T breast = system: HS 578T breast
HT29 colon = system: HT29 colon
IGROV1 ovarian = system: IGROV1 ovarian
K-562 leukemia = system: K-562 leukemia
KM12 colon = system: KM12 colon
LOX IMVI melanoma = system: LOX IMVI melanoma
M14 melanoma = system: M14 melanoma
MALME-3M melanoma = system: MALME-3M melanoma
MCF7 breast = system: MCF7 breast
MDA-MB-231 breast = system: MDA-MB-231 breast
MDA-MB-435 = system: MDA-MB-435
MOLT-4 leukemia = system: MOLT-4 leukemia
NCI-H23 lung = system: NCI-H23 lung
NCI-H460 lung = system: NCI-H460 lung
NCI-H522 lung = system: NCI-H522 lung
NCI/ADR-RES ovarian = system: NCI/ADR-RES ovarian
OVCAR-3 ovarian = system: OVCAR-3 ovarian
OVCAR-4 ovarian = system: OVCAR-4 ovarian
OVCAR-5 ovarian = system: OVCAR-5 ovarian
OVCAR-8 ovarian = system: OVCAR-8 ovarian
PC-3 prostate = system: PC-3 prostate
RPMI-8226 leukemia = system: RPMI-8226 leukemia
RXF 393 renal = system: RXF 393 renal
SF-268 CNS = system: SF-268 CNS
SF-295 CNS = system: SF-295 CNS
SF-539 CNS = system: SF-539 CNS
SK-MEL-2 melanoma = system: SK-MEL-2 melanoma
SK-MEL-28 melanoma = system: SK-MEL-28 melanoma
SK-MEL-5 melanoma = system: SK-MEL-5 melanoma
SK-OV-3 ovarian = system: SK-OV-3 ovarian
SN12C renal = system: SN12C renal
SNB-19 CNS = system: SNB-19 CNS
SR leukemia = system: SR leukemia
SW-620 colon = system: SW-620 colon
T-47D breast = system: T-47D breast
TK-10 renal = system: TK-10 renal
U251 CNS = system: U251 CNS
UACC-257 melanoma = system: UACC-257 melanoma
UACC-62 melanoma = system: UACC-62 melanoma
UO-31 renal = system: UO-31 renal

Compound: CC(=O)Oc1cn(-c2ccc(Cl)cc2)nc1C1=NN(C(C)=O)C(c2ccc(F)cc2F)O1 (stereo not given)
- GI50 (786-0 renal): 26.1 µM
- TGI (786-0 renal): 70.3 µM
- GI50 (A498 renal): 29.1 µM
- TGI (A498 renal): 66.4 µM
- GI50 (A549 NSCLC): 33.2 µM
- TGI (A549 NSCLC): > 100 µM
- GI50 (ACHN renal): 44.3 µM
- TGI (ACHN renal): > 100 µM
- GI50 (BT-549 breast): 19.5 µM
- TGI (BT-549 breast): 54.7 µM
- GI50 (CAKI-1 renal): 35.6 µM
- TGI (CAKI-1 renal): 79.8 µM
- GI50 (CCRF-CEM leukemia): 27.5 µM
- TGI (CCRF-CEM leukemia): > 100 µM
- GI50 (COLO 205 colon): 42.7 µM
- TGI (COLO 205 colon): > 100 µM
- GI50 (DU-145 prostate): 39.2 µM
- TGI (DU-145 prostate): > 100 µM
- GI50 (EKVX NSCLC): 28.5 µM
- TGI (EKVX NSCLC): 83 µM
- GI50 (HCC-2998 colon): 35.7 µM
- TGI (HCC-2998 colon): 55.3 µM
- GI50 (HCT-116 colon): 33.4 µM
- TGI (HCT-116 colon): > 100 µM
- GI50 (HCT-15 colon): 32.2 µM
- TGI (HCT-15 colon): > 100 µM
- GI50 (HOP-62 NSCLC): 36.2 µM
- TGI (HOP-62 NSCLC): > 100 µM
- GI50 (HOP-92 NSCLC): 20.6 µM
- TGI (HOP-92 NSCLC): 71.6 µM
- GI50 (HS 578T breast): 31.8 µM
- TGI (HS 578T breast): 88.8 µM
- GI50 (HT29 colon): 40.1 µM
- TGI (HT29 colon): > 100 µM
- GI50 (IGROV1 ovarian): 13.4 µM
- TGI (IGROV1 ovarian): 76.2 µM
- GI50 (K-562 leukemia): 30 µM
- TGI (K-562 leukemia): > 100 µM
- GI50 (KM12 colon): 25.4 µM
- TGI (KM12 colon): 84.2 µM
- GI50 (LOX IMVI melanoma): 30.1 µM
- TGI (LOX IMVI melanoma): > 100 µM
- GI50 (M14 melanoma): 31.4 µM
- TGI (M14 melanoma): > 100 µM
- GI50 (MALME-3M melanoma): 14.8 µM
- TGI (MALME-3M melanoma): 63.5 µM
- GI50 (MCF7 breast): 30 µM
- TGI (MCF7 breast): > 100 µM
- GI50 (MDA-MB-231 breast): 30.4 µM
- TGI (MDA-MB-231 breast): > 100 µM
- GI50 (MDA-MB-435): 27.9 µM
- TGI (MDA-MB-435): 89.5 µM
- GI50 (MOLT-4 leukemia): 18.5 µM
- TGI (MOLT-4 leukemia): 94 µM
- GI50 (NCI-H23 lung): 41.6 µM
- TGI (NCI-H23 lung): > 100 µM
- GI50 (NCI-H460 lung): 34.4 µM
- TGI (NCI-H460 lung): > 100 µM
- GI50 (NCI-H522 lung): 45.6 µM
- TGI (NCI-H522 lung): > 100 µM
- GI50 (NCI/ADR-RES ovarian): 42.9 µM
- TGI (NCI/ADR-RES ovarian): > 100 µM
- GI50 (OVCAR-3 ovarian): 19.7 µM
- TGI (OVCAR-3 ovarian): 75.9 µM
- GI50 (OVCAR-4 ovarian): 74.3 µM
- TGI (OVCAR-4 ovarian): > 100 µM
- GI50 (OVCAR-5 ovarian): 44.4 µM
- TGI (OVCAR-5 ovarian): > 100 µM
- GI50 (OVCAR-8 ovarian): 34.6 µM
- TGI (OVCAR-8 ovarian): > 100 µM
- GI50 (PC-3 prostate): 27.9 µM
- TGI (PC-3 prostate): > 100 µM
- GI50 (RPMI-8226 leukemia): 20.5 µM
- TGI (RPMI-8226 leukemia): 54.8 µM
- GI50 (RXF 393 renal): 23.9 µM
- TGI (RXF 393 renal): > 100 µM
- GI50 (SF-268 CNS): 29.6 µM
- TGI (SF-268 CNS): > 100 µM
- GI50 (SF-295 CNS): 20.2 µM
- TGI (SF-295 CNS): 51.3 µM
- GI50 (SF-539 CNS): 29.8 µM
- TGI (SF-539 CNS): > 100 µM
- GI50 (SK-MEL-2 melanoma): 74 µM
- TGI (SK-MEL-2 melanoma): > 100 µM
- GI50 (SK-MEL-28 melanoma): 50.2 µM
- TGI (SK-MEL-28 melanoma): > 100 µM
- GI50 (SK-MEL-5 melanoma): 18.4 µM
- TGI (SK-MEL-5 melanoma): 38.4 µM
- GI50 (SK-OV-3 ovarian): 50.4 µM
- TGI (SK-OV-3 ovarian): > 100 µM
- GI50 (SN12C renal): 33.6 µM
- TGI (SN12C renal): > 100 µM
- GI50 (SNB-19 CNS): 48.7 µM
- TGI (SNB-19 CNS): > 100 µM
- GI50 (SR leukemia): 35.8 µM
- TGI (SR leukemia): 85.4 µM
- GI50 (SW-620 colon): 41.4 µM
- TGI (SW-620 colon): > 100 µM
- GI50 (T-47D breast): 67.3 µM
- TGI (T-47D breast): > 100 µM
- GI50 (TK-10 renal): 21.1 µM
- TGI (TK-10 renal): 61.9 µM
- GI50 (U251 CNS): 38.5 µM
- TGI (U251 CNS): > 100 µM
- GI50 (UACC-257 melanoma): 27.2 µM
- TGI (UACC-257 melanoma): 81.6 µM
- GI50 (UACC-62 melanoma): 28.8 µM
- TGI (UACC-62 melanoma): 96.3 µM
- GI50 (UO-31 renal): 31.8 µM
- TGI (UO-31 renal): > 100 µM
